From paper PMC3715890, “A Cyclic Peptide Inhibitor of HIF-1 Heterodimerization That Inhibits Hypoxia Signaling in Cancer Cells” (Journal of the American Chemical Society, 2013)
Entries after “also recorded” stand apart in the source; their conditions may differ.

Key:
[1] = system: CAIX mRNA in hypoxic U2OS cells; assay: CAIX mRNA qPCR, U2OS; assay type: cell-based, human; conditions: hypoxia, 100 μM
Procedure: Cells were treated with the stated concentrations of inhibitor (P1, P2, or P3) and incubated in normoxia for 4 h, followed by incubation in a hypoxic environment. All manipulation of cell pellets (e.g., lysis, mRNA, and protein extraction) was conducted in a hypoxic environment.
Total RNA was extracted from MCF-7 and U2OS cells using RNeasy Mini Kit (74104, QIAGEN) and quantified using a Nanodrop ND-1000 spectrophotometer. Complementary DNA was synthesized in a 20 μL reaction containing 1 μg of total RNA, using qScript cDNA SuperMix (95048-100, Quanta Biosciences) according to the manufacturer’s instructions. Quantitative real-time PCRs were performed using Universal Taqman PCR master mix (Applied Biosystems) >and the Taqman gene expression assay of interest (Applied Biosystems) on an ABI StepOnePlus Real-Time PCR system (Applied Biosystems). Expression assays used in this study were HIF-1α (00936376_m1), VEGF-A (Hs00173626_m1), CAIX (Hs00154208_m1), LOX (Hs00942480_m1), HIF2α (Hs01026149_m1), CITED2 (Hs01897804_s1), and 18S (Hs99999901_m1). All expression values were normalized using expression of 18S.

[2] = system: VEGF protein in hypoxic U2OS cells; assay: VEGF protein ELISA, U2OS; assay type: cell-based, human; conditions: hypoxia, 100 μM
Procedure: Cells were treated with the stated concentrations of inhibitor (P1, P2, or P3) and incubated in normoxia for 4 h, followed by incubation in a hypoxic environment. All manipulation of cell pellets (e.g., lysis, mRNA, and protein extraction) was conducted in a hypoxic environment. […]
manufacturer’s instructions.
The loaded beads were washed and blocked with the provide buffers. […]
reagent (RPN2232, GE Healthcare).
Fluorescent binding assay
Scientific, catalogue no. […]
followed by washing with 3 × 200 µL ELISA buffer. 95 µL of EMSA buffer was added to […]
The fluorescence of each well at
Isothermal Titration Calorimetry […]
iTC200 system (GE Healthcare).
P2) was dissolved in the same buffer.
Control experiments for P1 or P2
Quantification of VGEF-A protein by ELISA […]
incubation in hypoxia for 16h. VEGF-A protein concentration was quantified by human

[3] = molecular target: T1, His-HIF-1α1–350 with GST-HIF-1β1–474 (Homo sapiens, UniProt Q16665); assay: ELISA of HIF-1 dimerization; assay type: biochemical; conditions: pH 7.5, 30 min preincubation, room temperature
T1 construct: heterodimerization of His-HIF-1α1–350 with GST-HIF-1β1–474 analyzed by ELISA; made in house; host or cells: E. coli BL21(DE3)
Excerpt: We next probed the effect of cyclo-CLLFVY on the interaction of HIF-1α with HIF-1β in vitro. […] Unfortunately, the positively charged Tat-tag of P1 is incompatible with EMSA (interferes with the bandshift of DNA). […] To determine the HIF-1-specificity of cyclo-CLLFVY, we assessed its ability to disrupt HIF-2 dimerization by ELISA. Recombinant His-HIF-2α1–351 was produced and purified, and shown to form functional heterodimers with GST-HIF-1β1–474 by EMSA (Figure S5B).
HIF-1β1-474, *please note that isoform 3 of HIF-1β was used). The standard protocol for protein expression was followed. Briefly, a 1 % culture in LB was incubated at 37 °C with shaking until OD600 of 0.6 was reached. 0.1 mM IPTG was added and the liquid culture incubated with shaking at 18 °C overnight. Cell pellets were suspended in MHW buffer9 (approximately 4 ml buffer per 1 g cell pellet). Lysozyme (100 µg/ml) was added to the lysate and the solution was incubated with shaking for 20 min at 5 °C. […]
glycerol) was added to individual wells of a Pierce Ni2+-coated 96-well plate (Thermo Scientific, catalogue no. […] The stated quantity of inhibitor (P1 or P2) was added as a solution in 100 µL of buffer to the desired wells, and the plate incubated at room temperature for 30 minutes. […]

## Tat-cyclo-CRLMVL (head to tail) [P2, cyclo-CRLMVL tagged with Tat peptide via a disulfide bond; used as negative control]
[1]
  CAIX mRNA: no effect
[2]
  VEGF protein level: has no effect in either cell line
[3]
  effect on HIF-1 dimerization: does not disrupt HIF-1 dimerization; also recorded: had no effect on HIF-1 dimerization
